According to article PMC10518255, “A first-in-class pan-lysyl oxidase inhibitor impairs stromal remodeling and enhances gemcitabine response and survival in pancreatic cancer” (Nature Cancer, 2023):
Several values for one entry are separate records, joined by “and”; a condition that tells them apart may be missing. Equal entries are not always repeated.

Columns and labels:
LOXL2 = molecular target: T1, LOXL2 (Homo sapiens, UniProt Q9Y4K0); experiment: Lysyl oxidase enzymatic activity, fluorescence-based assay, IC50; format: biochemical; conditions: replicates
T1 sequence (Q9Y4K0 26-774): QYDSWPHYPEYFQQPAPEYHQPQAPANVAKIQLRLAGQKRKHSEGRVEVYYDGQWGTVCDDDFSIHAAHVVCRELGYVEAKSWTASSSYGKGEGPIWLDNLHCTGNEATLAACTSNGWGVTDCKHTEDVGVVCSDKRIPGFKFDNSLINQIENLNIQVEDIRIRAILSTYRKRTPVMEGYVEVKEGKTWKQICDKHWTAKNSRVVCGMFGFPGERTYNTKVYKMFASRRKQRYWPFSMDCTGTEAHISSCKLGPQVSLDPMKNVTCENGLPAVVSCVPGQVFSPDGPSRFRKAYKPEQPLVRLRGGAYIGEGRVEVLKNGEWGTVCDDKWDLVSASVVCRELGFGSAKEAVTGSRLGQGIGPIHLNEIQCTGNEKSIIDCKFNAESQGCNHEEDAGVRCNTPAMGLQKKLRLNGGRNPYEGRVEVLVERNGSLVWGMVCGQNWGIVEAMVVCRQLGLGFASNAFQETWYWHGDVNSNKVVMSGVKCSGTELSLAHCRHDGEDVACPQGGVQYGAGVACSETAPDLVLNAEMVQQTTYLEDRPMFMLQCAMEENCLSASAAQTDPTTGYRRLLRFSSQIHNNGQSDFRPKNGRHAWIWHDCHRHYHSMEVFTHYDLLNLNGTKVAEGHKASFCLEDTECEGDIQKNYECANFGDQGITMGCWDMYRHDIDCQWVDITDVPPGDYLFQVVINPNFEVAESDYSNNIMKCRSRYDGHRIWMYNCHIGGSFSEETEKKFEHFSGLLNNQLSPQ
Description: (§1) Data are presented as mean ± s.d. […] Data presented as mean ± s.d. […] Source data TEXT PRINTED IN THE PICTURE: (b) PXS-5505: Recombinant DAO IC50 (nM): >30,000; Recombinant SSAO/VAP1 IC50 (nM): >30,000; Recombinant MAO-A IC50 (nM): >30,000; Recombinant MAO-B IC50 (nM): >30,000 | (f) PXS-5505: Fibroblast LOX IC50 (nM): 4,930; Recombinant LOXL-1 IC50 (nM): 1,590; Recombinant LOXL-2 IC50 (nM): 570; Recombinant LOXL-3 IC50 (nM): 1,800; Recombinant LOXL-4 IC50 (nM): 190
(§2) In characterizing PXS-5505, the half-maximum inhibitory concentration (IC50) values for each of the lysyl oxidase family members were determined by measuring enzymatic activity using a fluorescence-based assay.
(§3) Data presented as mean values +/− SD. f. […] Data presented as mean values +/− SD. […] Data presented as mean values +/− SD. […] Data presented as mean values +/− SD. Ordinary one-way ANOVA for multiple comparison test performed. Source data

Fibroblast LOX = molecular target: T2, Fibroblast LOX (Homo sapiens, UniProt P28300); experiment: as above; format: biochemical
T2 construct: endogenous in cells
T2 sequence (P28300 169-417): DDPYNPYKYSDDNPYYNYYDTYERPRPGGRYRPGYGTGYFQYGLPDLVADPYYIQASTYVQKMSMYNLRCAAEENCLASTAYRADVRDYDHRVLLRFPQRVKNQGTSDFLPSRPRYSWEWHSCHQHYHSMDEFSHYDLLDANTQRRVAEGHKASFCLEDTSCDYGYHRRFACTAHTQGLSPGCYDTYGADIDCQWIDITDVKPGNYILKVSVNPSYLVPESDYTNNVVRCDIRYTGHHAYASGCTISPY
Description: as §1, §2, §3

Structure (SMILES): Cl.Cl.NC/C=C(\F)CS(=O)(=O)c1cccc2cccnc12.O [PXS-5505, (Z)-3-fluoro-4-(quinolin-8-ylsulfonyl)but-2-en-1-amine dihydrochloride monohydrate]
- LOXL2 activity, IC50 determination curve (LOXL2; log(Concentration) -5, 10 µM): 0.791 and 0.552 and 3.171 and 2.146 and 2.6 and 2.324 and 4.194 and 15.0185 and 14.1707 and 8.37
- LOXL2 activity, IC50 determination curve (LOXL2; log(Concentration) -5.47712, 3.333 µM): 9.121 and 8.824 and 12.3933 and 6.2776 and 9.388 and 8.093 and 13.2114 and 39.9206 and 33.7785 and 20.6899
- LOXL2 activity, IC50 determination curve (LOXL2; log(Concentration) -5.95424, 1.111 µM): 20.2389 and 25.6139 and 36.0073 and 28.0488 and 26.7357 and 24.6346 and 38.4827 and 46.4776 and 45.1428 and 35.5222
- LOXL2 activity, IC50 determination curve (LOXL2; log(Concentration) -6.43136, 0.3704 µM): 49.7826 and 57.6495 and 70.9317 and 50.7979 and 55.1496 and 52.5589 and 67.2849 and 60.9084 and 60.7641 and 53.7886
- LOXL2 activity, IC50 determination curve (LOXL2; log(Concentration) -6.90849, 0.1235 µM): 78.7223 and 82.1964 and 89.3928 and 77.9843 and 81.0351 and 77.3849 and 88.1863 and 70.6401 and 64.9941 and 65.916
- LOXL2 activity, IC50 determination curve (LOXL2; log(Concentration) -7.38561, 0.04115 µM): 84.6124 and 93.105 and 97.9338
- LOXL2 activity, IC50 determination curve (LOXL2; log(Concentration) -7.86273, 0.01372 µM): 94.5455 and 97.658 and 97.7862 and 96.4122 and 96.1969 and 92.4844 and 101.479 and 86.0269 and 80.2817 and 84.4595
- LOXL2 activity, IC50 determination curve (LOXL2; log(Concentration) -8.33985, 0.004572 µM): 93.002 and 104.67 and 103.129 and 98.6809 and 97.1184 and 102.587 and 94.1262 and 87.5963 and 94.8578
- LOXL2 activity, IC50 determination curve (LOXL2; log(Concentration) -8.81697, 0.001524 µM): 103.323 and 104.142 and 98.8815 and 101.169 and 98.4227 and 104.725 and 98.8974 and 89.6166 and 94.7795
- LOXL2 activity, IC50 determination curve (LOXL2; log(Concentration) -9.29409, 0.000508 µM): 94.0836 and 101.708 and 97.4085 and 100.105 and 99.6157 and 105.819 and 98.717 and 92.3043 and 96.8459
- activity at 0.004572 µM (LOXL2; read-out: LOXL2 activity, IC50 determination curve, log(Concentration) -8.33985): 91.8%
- activity at 0.001524 µM (LOXL2; read-out: LOXL2 activity, IC50 determination curve, log(Concentration) -8.81697): 95.1%
- activity at 0.000508 µM (LOXL2; read-out: LOXL2 activity, IC50 determination curve, log(Concentration) -9.29409): 92%
- IC50 (Fibroblast LOX): 4.93 µM
- LOX activity, IC50 determination curve (Fibroblast LOX; log(Concentration) -4.52288, replicates, 30 µM): -1.8303 and 0.6579 and 0.3247
- LOX activity, IC50 determination curve (Fibroblast LOX; log(Concentration) -5, replicates, 10 µM): 3.883 and 10.1684 and 20.9265 and 5.02 and 4.758 and 6.391 and 6.186 and 6.029 and 20.5369 and 17.2584 and 29.8226 and 3.623 and 26.5163 and 8.055 and 5.279 and 6.036 and 3.683 and 8.994 and 2.62 and 5.888
- LOX activity, IC50 determination curve (Fibroblast LOX; log(Concentration) -5.47712, replicates, 3.333 µM): 26.3616 and 38.5547 and 37.4589 and 30.4803 and 26.5908 and 26.0097 and 25.4086 and 23.2841 and 47.0211 and 41.5569 and 54.9662 and 30.9927 and 55.9602 and 33.6452 and 26.0055 and 25.2076 and 21.7888 and 33.3569 and 26.6311 and 45.3445
- LOX activity, IC50 determination curve (Fibroblast LOX; log(Concentration) -5.95424, replicates, 1.111 µM): 65.9487 and 69.3911 and 60.7313 and 65.7321 and 64.7348 and 60.684 and 73.4741 and 69.7585 and 72.3228 and 61.8434 and 76.5191 and 70.4394 and 64.4999 and 59.1047 and 54.3417 and 66.355 and 58.9798 and 55.4122
- LOX activity, IC50 determination curve (Fibroblast LOX; log(Concentration) -6.43136, replicates, 0.3704 µM): 87.2177 and 88.3395 and 79.2811 and 66.9609 and 65.4146 and 85.3577 and 83.5816 and 83.3016 and 85.8139 and 85.7077 and 63.7427 and 87.2402 and 81.0139 and 93.5693 and 81.2357 and 80.2494 and 78.0142 and 85.6866 and 82.1322 and 88.2018
- LOX activity, IC50 determination curve (Fibroblast LOX; log(Concentration) -6.90849, replicates, 0.1235 µM): 96.5523 and 90.6919 and 85.8494 and 82.293 and 94.8665 and 94.3951 and 93.9784 and 95.943 and 87.9121 and 85.7594 and 95.8669 and 88.1459 and 102.086 and 95.1473 and 93.948 and 87.9189 and 98.6889 and 90.9023 and 91.7994
- activity at 0.1235 µM (Fibroblast LOX; read-out: LOX activity, IC50 determination curve, log(Concentration) -6.90849, replicates): 99.8%
- activity at 0.01372 µM (Fibroblast LOX; read-out: LOX activity, IC50 determination curve, log(Concentration) -7.86273, replicates): 104%
- activity at 0.004572 µM (Fibroblast LOX; read-out: LOX activity, IC50 determination curve, log(Concentration) -8.33985, replicates): 102%
- activity at 0.001524 µM (Fibroblast LOX; read-out: LOX activity, IC50 determination curve, log(Concentration) -8.81697, replicates): 108%
- activity at 0.000508 µM (Fibroblast LOX; read-out: LOX activity, IC50 determination curve, log(Concentration) -9.29409, replicates): 105%
